Experimental data from US20240216344A1, “THIAZOLIDINEDIONE ANALOGS FOR THE TREATMENT OF NAFLD AND METABOLIC DISEASES” (Cirius Therapeutics, Inc., priority 2019, published 2024).

Experiments:
[1] = test system: mice fed a diet enriched in trans fat, cholesterol and fructose; test: Preclinical NASH model: trans fat, cholesterol and fructose diet for 19 weeks, NAS and fibrosis histology; type: in vivo; settings: 30 mg/kg; treatment of the mice or isolated hepatocytes
Description: Mice were fed a diet enriched in trans fat, cholesterol and fructose for 19 weeks to induce hepatic damage, which was assessed by histological changes in the NAS and fibrosis, measured by trichrome staining for collagen. MSDC-0602K (30 mg/kg) was given at either four weeks into the treatment or 16 weeks into the treatment as compared to the vehicle treated mice who were also on the modified diet. The results of mice who were kept on the normal diet are included for comparison. […] The signals for activation of the stellate cells and fibrosis are attenuated by treatment of the mice or isolated hepatocytes with MSDC-0602K.

[2] = test system: patients with biopsy-proven NASH with fibrosis and no cirrhosis; test: EMMINENCE Phase 2b trial, markers of glucose metabolism, liver enzymes, fibrosis and apoptosis biomarkers; type: in vivo, human; settings: for Glucose, LS mean change from baseline to 6 months / Glucose, LS mean difference vs placebo at 6 months / HOMA IR, LS mean change from baseline to 6 months / HOMA IR, LS mean difference vs placebo at 6 months / HgBA1C, LS mean change from baseline to 6 months / HgBA1C, LS mean difference vs placebo at 6 months / Insulin, LS mean change from baseline to 6 months / Insulin, LS mean difference vs placebo at 6 months: patients with HbA1C >7%
Description: Study Design: EMMINENCE was a randomized, double-blind evaluation of three oral daily doses of MSDC-0602K (62.5 mg, 125 mg and 250 mg) or placebo given for 12 months to adult patients with biopsy-proven NASH with fibrosis and no cirrhosis. The primary efficacy endpoint was assessed at 12 months. Clinic visits were conducted at baseline, 1, 2, 3, 6, 9, and 12 months, followed 2 weeks later by a safety visit. An interim analysis of safety and efficacy not related to the primary and secondary endpoints was conducted when 6 month data were available for 328 patients (see Example 5, above.) Interim results were provided only as summary statistics to avoid any unmasking of the study team or sponsor.
If no usable liver biopsy was available within 9 months prior to screening, a percutaneous liver biopsy was performed in patients with AST≥20 U/L and FibroScan CAP score ≥270 db/m and kPa≥8.5. Digitized slides were read by a single expert histopathologist according to NASH Clinical Research Network criteria. Baseline biopsies were read first for study qualification and a second time mixed randomly among 12-month biopsies. Fasting blood samples for routine central laboratory analyses were collected at each visit, and frozen samples collected at selected visits for biomarker assays.
Efficacy endpoints: The primary efficacy endpoint was hepatic histological improvement in NAS defined as ≥2-point NAS decrease with a ≥1-point reduction in either ballooning or lobular inflammation and no increase in fibrosis stage at 12 months. Secondary efficacy endpoints included (1) NASH resolution defined as hepatocellular ballooning score of 0 and lobular inflammation score of 0-1 with no increase in fibrosis stage at 12 months, (2) fibrosis improvement defined as ≥1-stage decrease in fibrosis with no worsening of lobular inflammation or hepatocellular ballooning, (3) change from baseline in NAFLD activity score (NAS) and each one of its components (steatosis, lobular inflammation and ballooning) at 12 months, and (4) change from baseline in fibrosis score at 12 months. Exploratory efficacy endpoints included shifts in the central histopathologist's NASH diagnosis confirmation, and changes from baseline to 12 months in markers of glycemic control and insulin sensitivity, liver function/injury, and apoptosis and liver fibrosis.
Using a modified intent-to-treat approach, treated patients were included for analysis in their randomly-assigned treatment groups. Participation of sites with serious GCP or quality concerns were terminated and their data excluded from the analyses. Post-baseline measures through 14 days after the last study drug dose were included. No errors in treatment assignment occurred. The central histopathologist's re-read of baseline biopsies was used as baseline. Patients who no longer qualified on re-read were included in the analyses. Each active treatment group was compared to placebo with respect to the primary and secondary histopathologic endpoints using logistic regression including adjustment for randomization strata (diabetes mellitus, baseline fibrosis F1 versus F2/F3), and ordinal baseline NAS. Stratification-adjusted risk differences adjusted similarly are provided. The primary analyses included only observed data; sensitivity analyses included multiply-imputing missing follow-up and considering missing follow-up as a non-responder. Each active dose was compared to placebo regarding changes in NASH CRN scores using analysis of covariance with adjustment for age, sex, diabetes mellitus, Vitamin E≥400 IU, baseline fibrosis F1 versus F2/F3, and the baseline value. Changes in laboratory markers from baseline to 6 months and to 12 months were analyzed similarly.
Post-hoc analyses: Each active dose was compared to placebo regarding the proportion where the pathologist's NASH diagnosis shifted from confirmed at baseline (re-read) to not confirmed at month 12 using logistic regression. […]

## COc1cccc(C(=O)COc2ccc(CC3SC(=O)NC3=O)cc2)c1 (centres unmarked) [MSDC-0602K]
[1]
  signals for activation of the stellate cells and fibrosis: attenuated
[2]; 62.5 mg
  proportion of patients with baseline ALT above 19 (women) and 30 (men) U/L whose levels were normal at 12 months: 10.6%
  Glucose, LS mean change from baseline to 6 months: -2.42 mmol/L
  Glucose, LS mean difference vs placebo at 6 months: -1.18 mmol/L
  HOMA IR, LS mean change from baseline to 6 months: −6.472
  HOMA IR, LS mean difference vs placebo at 6 months: −1.964
  HgBA1C, LS mean change from baseline to 6 months: −0.61%
  HgBA1C, LS mean difference vs placebo at 6 months: −0.18 %
  Insulin, LS mean change from baseline to 6 months: −7.724 uIU/mL
  Insulin, LS mean difference vs placebo at 6 months: −2.242 uIU/mL
[2]; 125 mg
  proportion of patients with baseline ALT above 19 (women) and 30 (men) U/L whose levels were normal at 12 months: 20.8%
  Glucose, LS mean change from baseline to 6 months: -3.48 mmol/L
  Glucose, LS mean difference vs placebo at 6 months: -2.23 mmol/L
  HOMA IR, LS mean change from baseline to 6 months: −8.178
  HOMA IR, LS mean difference vs placebo at 6 months: −3.669
  HgBA1C, LS mean change from baseline to 6 months: −1.43%
  HgBA1C, LS mean difference vs placebo at 6 months: −1.01%
  Insulin, LS mean change from baseline to 6 months: −8.208 uIU/mL
  Insulin, LS mean difference vs placebo at 6 months: −2.726 uIU/mL
[2]; 250 mg
  proportion of patients with baseline ALT above 19 (women) and 30 (men) U/L whose levels were normal at 12 months: 33.3%
  Glucose, LS mean change from baseline to 6 months: -3.24 mmol/L
  Glucose, LS mean difference vs placebo at 6 months: -1.99 mmol/L
  HOMA IR, LS mean change from baseline to 6 months: −8.197
  HOMA IR, LS mean difference vs placebo at 6 months: −3.689
  HgBA1C, LS mean change from baseline to 6 months: −1.00%
  HgBA1C, LS mean difference vs placebo at 6 months: −0.58%
  Insulin, LS mean change from baseline to 6 months: −10.066 uIU/mL
  Insulin, LS mean difference vs placebo at 6 months: −4.584 uIU/mL
[2]; combined 125 and 250 mg dose groups
  proportion of patients with baseline ALT above 19 (women) and 30 (men) U/L whose levels were normal at 12 months: 27.2%
